Earlier results, collected in patent US20240139105A1, “PHARMACEUTICAL COMPOSITION CONTAINING GHRP-6” (CENTRO DE INGENIERÍA GENÉTICA Y BIOTECNOLOGÍA, priority 2021, published 2024).
Where no end group is shown, it is not given here. [ ]: non-standard residue; d: D form.

How the values were obtained:
[1] = system: Mongolia gerbil (Meriones unguiculatus); conditions: model of ischemic cerebral infarction, in combination with EGF
[2] = system: pigs; conditions: model of acute myocardial infarction in pigs
[3] = system: humans; conditions: intravenous route

## His-Trp-Ala-Trp-Phe-Lys-NH2 (H[dW]AW[dF]K-NH2) [GHRP-6, synthetic peptide, growth hormone secretagogue; the API of all formulations]
[1]
  Therapeutic dosage reported: around 600 μg/kg
[2]
  Therapeutic dosage reported: 400 µg/kg
[3]
  Doses referred as safe in humans: ≤ 2 µg/kg
